Reference: ChEMBL document CHEMBL2380306 (Bioorg Med Chem Lett, 2013)
In brackets after ≈: the same amount, converted by molar mass.

What was measured:
physchem = details: buffer, pH 7.4
[1] = Aqueous kinetic solubility of the compound at pH 6.5; format: physicochemical; details: read-out: Kinetic_solubility
[2] = Apparent permeability across MDCK2 cells; format: ADME, cell-based, Canis lupus familiaris, MDCK-II; details: dog, MDCK
[3] = Drug excretion in Wistar-Han rat bile at 5 mg/kg, iv; format: ADME, organism-based; design: dose 5 mg/kg, route intravenous; details: read-out: Drug excretion
[4] = Oral bioavailability in Wistar-Han rat at 5 mg/kg; format: ADME, organism-based; details: in vivo
[5] = Oral bioavailability in Beagle dog at 4 mg/kg; format: ADME, organism-based, Canis lupus familiaris; details: in vivo
[6] = Oral bioavailability in Beagle dog at 5 mg/kg; format: ADME, organism-based, Canis lupus familiaris; details: in vivo
[7] = Volume of distribution at steady state in Beagle dog at 0.5 mg/kg, iv and 5 mg/kg, po; format: ADME, organism-based, Canis lupus familiaris; details: in vivo, read-out: Vdss
[8] = Oral bioavailability in Wistar-Han rat at 50 mg/kg; format: ADME, organism-based; details: in vivo
[9] = Volume of distribution at steady state in Wistar-Han rat at 1 mg/kg, iv and 50 mg/kg, po; format: ADME, organism-based; details: in vivo, read-out: Vdss
[10] = Apparent permeability across human Caco2 cells at pH 6.5; format: ADME, cell-based; details: Caco-2, pH 6.5
[11] = Apparent permeability across human Caco2 cells at pH 7.4; format: ADME, cell-based; details: Caco-2, pH 7.4

Row | Structure (SMILES) | logD (physchem) | Papp [2] [×10⁻⁶ cm/s] | further results
1 | CCC[C@@H](Oc1cc(C)c(-n2cc(C(F)(F)F)cn2)c(C)c1)c1ccc(C(=O)NCCC(=O)O)cc1 | 2.7 |  | 
2 | CCCC(Nc1ccc(-n2cnc(C(F)(F)F)c2)cc1)c1ccc(C(=O)NCCC(=O)O)cc1 (racemic) | 1.3 | 0.6 | solubility kinetic [1]: 350 µM (≈ 166 µg/mL)
3 | CCCC(Nc1ccc(-n2cc(C(F)(F)F)cn2)cc1)c1ccc(C(=O)NCCC(=O)O)cc1 (racemic) | 1.9 | 4 | solubility kinetic [1]: 350 µM (≈ 166 µg/mL)
4 | CCCC(Nc1ccc(-n2cc(C(F)(F)F)cn2)nc1)c1ccc(C(=O)NCCC(=O)O)cc1 (racemic) | 2.1 | 4.6 | 
5 | CCCC(Nc1cnc(-n2cc(C(F)(F)F)cn2)nc1)c1ccc(C(=O)NCCC(=O)O)cc1 (racemic) | 1.3 | 0.8 | solubility kinetic [1]: 380 µM (≈ 181 µg/mL)
6 | CCCC(Oc1ccc(-n2cc(C(F)(F)F)cn2)cc1)c1ccc(C(=O)NCCC(=O)O)cc1 (racemic) | 2.4 | 3.1 | solubility kinetic [1]: 400 µM (≈ 190 µg/mL)
7 | CCCC(Oc1ccc(-n2cc3ccccc3n2)cc1)c1ccc(C(=O)NCCC(=O)O)cc1 (racemic) | 2.5 |  | 
8 | CCCC(Nc1ccc(-n2cc(C(F)(F)F)cn2)cn1)c1ccc(C(=O)NCCC(=O)O)cc1 (racemic) | 1.3 | 0.8 | 
9 | CCCC(Nc1cc(C)c(-n2cc(C(F)(F)F)cn2)c(C)c1)c1ccc(C(=O)NCCC(=O)O)cc1 (racemic) | 2.2 | 2.7 | 
10 | CCCC(Oc1ccc(-n2cnc(C(F)(F)F)c2)cc1)c1ccc(C(=O)NCCC(=O)O)cc1 (racemic) |  | 2.3 | 
11 | CCCC(Oc1ccc(-n2cc(C(F)(F)F)cn2)nc1)c1ccc(C(=O)NCCC(=O)O)cc1 (racemic) | 2.6 | 3.4 | 
12 | CCCC(Oc1cnc(-n2cc(C(F)(F)F)cn2)nc1)c1ccc(C(=O)NCCC(=O)O)cc1 (racemic) | 1.5 |  | 
13 | O=C(O)CCNC(=O)c1ccc(C(Oc2ccc(-n3cc(C(F)(F)F)cn3)cc2)C2CCC2)cc1 (racemic) | 2.6 |  | 
14 | CC(C)CC(Oc1ccc(-n2cc(C(F)(F)F)cn2)cc1)c1ccc(C(=O)NCCC(=O)O)cc1 (racemic) | 3.2 |  | 
15 | O=C(O)CCNC(=O)c1ccc(C(Oc2ccc(-n3cc(C(F)(F)F)cn3)cc2)C2CCCC2)cc1 (racemic) | 3.3 |  | 
16 | CC(C)(C)C(Oc1ccc(-n2cc(C(F)(F)F)cn2)cc1)c1ccc(C(=O)NCCC(=O)O)cc1 (racemic) | 3.7 |  | 
17 | CC(C)C(Oc1ccc(-n2cc(C(F)(F)F)cn2)cc1)c1ccc(C(=O)NCCC(=O)O)cc1 (racemic) | 2.6 |  | 
18 | O=C(O)CCNC(=O)c1ccc(C(Oc2ccc(-n3cc(C(F)(F)F)cn3)cc2)C2CC2)cc1 (racemic) | 1.7 |  | 

Row | Structure (SMILES) | logD (physchem) | Papp [2] [×10⁻⁶ cm/s] | further results
19 | CCC(Oc1ccc(-n2cc(C(F)(F)F)cn2)cc1)c1ccc(C(=O)NCCC(=O)O)cc1 (racemic) | 1.9 |  | 
20 | CCCC(Oc1ccc(-n2cc(Cl)cn2)cc1)c1ccc(C(=O)NCCC(=O)O)cc1 (racemic) | 2.6 |  | solubility kinetic [1]: 70 µM (≈ 30.9 µg/mL)
21 | CCCC(Oc1ccc(-n2cc(C)cn2)cc1)c1ccc(C(=O)NCCC(=O)O)cc1 (racemic) | 2.1 |  | 
22 | CCCC(Oc1ccc(-n2cc(F)cn2)cc1)c1ccc(C(=O)NCCC(=O)O)cc1 (racemic) | 2 |  | 
23 | CCCC(Oc1ccc(-n2cccn2)cc1)c1ccc(C(=O)NCCC(=O)O)cc1 (racemic) | 1.7 |  | 
24 | CCCC(Oc1ccc(-n2cc(C#N)cn2)cc1)c1ccc(C(=O)NCCC(=O)O)cc1 (racemic) | 1.2 |  | 
25 | CCCC(Oc1ccc(-n2cc(OC)cn2)cc1)c1ccc(C(=O)NCCC(=O)O)cc1 (racemic) | 1.4 |  | 
26 | CCCC(Oc1ccc(-n2cc(C(=O)N(C)C)cn2)cc1)c1ccc(C(=O)NCCC(=O)O)cc1 (racemic) | 0.5 |  | 
27 | CCCC(Oc1ccc(-n2cc(C(F)(F)F)c(C)n2)cc1)c1ccc(C(=O)NCCC(=O)O)cc1 (racemic) | 2.8 |  | 
28 | CCCC(Oc1ccc(-n2cc3c(n2)CCCC3)cc1)c1ccc(C(=O)NCCC(=O)O)cc1 (racemic) | 2.7 |  | 
29 | CCCC(Oc1cc(C)c(-n2cc(C(F)(F)F)cn2)c(C)c1)c1ccc(C(=O)NCCC(=O)O)cc1 (racemic) | 2.6 |  | 
30 | CCCC(Oc1ccc(-n2cc(C(F)(F)F)cn2)c(C)c1)c1ccc(C(=O)NCCC(=O)O)cc1 (racemic) | 2.6 |  | 
31 | CCCC(Nc1ccc(-n2cnc(C(F)(F)F)c2)cc1)c1ccc(C(=O)NCCC(=O)O)cc1 (single isomer, unassigned) |  |  | dose excreted [3]: 57%
32 | CCCC(Oc1ccc(-n2cc(C(F)(F)F)cn2)cc1)c1ccc(C(=O)NCCC(=O)O)cc1 (single isomer, unassigned) |  |  | bioavailability [4]: 60%
33 | CCCC(Oc1ccc(-n2cc3ccccc3n2)cc1)c1ccc(C(=O)NCCC(=O)O)cc1 (single isomer, unassigned) |  | 2.2 | bioavailability [4]: 3%
34 | CCC[C@H](c1ccc(C(=O)NCCC(=O)O)cc1)[C@H](c1ccc(Cl)cc1)c1c[nH]c2c(F)cc(C)cc12 [MK-3577] |  |  | bioavailability [5]: 30%; bioavailability [4]: 7%; solubility kinetic [1]: 23 µM (≈ 12 µg/mL)
35 | CCC[C@H](Oc1cc(C)c(-n2cc(C(F)(F)F)cn2)c(C)c1)c1ccc(C(=O)NCCC(=O)O)cc1 [PF-06291874] | 2.5 | 3.6 | bioavailability [6]: 100%; Vd [7]: 0.31 L/kg; bioavailability [8]: 100%; Vd [9]: 0.4 L/kg; Papp [10]: 30 ×10⁻⁶ cm/s; Papp [11]: 8.5 ×10⁻⁶ cm/s
